Results as given in patent US4297280A, “4,1-Benzoxazepines” (Shionogi & Co., Ltd., priority 1978, dated 1981).
Where a name gives a salt, the structure may show the parent alone.

How the values were obtained:
acute lethality (LD50) = settings: in vivo; DS male mouse, 20-24 g
[1] = antipentylenetetrazol test (pentylenetetrazol 125 mg/kg s.c.); assay type: in vivo; settings: sc; SLC ddY male mouse, 20-24 g; pentylenetetrazol preliminarily administered at 125 mg/kg s.c.; read-out: ED50 anti-pentylenetetrazol test
Procedure: (§1) *^1 test animal: SLC ddY male mouse, 20-24 g of body weight
*^2 pentylenetetrazol was preliminarily administered at a dose of 125
mg per 1 kg of body weight in subcutaneous injection.

rotarod performance test = assay type: in vivo; settings: SLC ddY male mouse, 20-24 g
Source text: as §1

| SMILES | LD50 (acute lethality (LD50)) [mg/kg] | ED50 [1] [mg/kg] | ED50 (rotarod performance test) [mg/kg] |
| --- | --- | --- | --- |
| CN1CCN=C(c2ccccc2)c2cc(Cl)ccc21 [medazepam, reference compound] | > 1000 | 4.76 | 104 |
| Cc1nnc2n1-c1ccc(Cl)cc1C(c1ccccc1Cl)OC2 (centres unmarked) | > 1000 | 0.74 | 30.6 |
| NCc1nnc2n1-c1ccc(Cl)cc1C(c1ccccc1Cl)OC2 (centres unmarked) [drawing 27 (H, hydrobromide)] | > 1000 | 2.49 | 24.1 |
| Cc1nnc2n(c1=O)-c1ccc(Cl)cc1C(c1ccccc1Cl)OC2 (centres unmarked) | > 1000 | 0.75 | 24.5 |
| CN(C)C=C1N=C2COC(c3ccccc3Cl)c3cc(Cl)ccc3N2C1=O (centres unmarked) | > 1000 | 1.6 | 73.5 |
| CN1CCN(C=C2N=C3COC(c4ccccc4Cl)c4cc(Cl)ccc4N3C2=O)CC1 (centres unmarked) | > 1000 | 3.28 | > 100 |
| CN1C(=O)CN=C(c2ccccc2)c2cc(Cl)ccc21 [diazepam, reference compound] | – | 1.2 | 13.4 |
| CCOC1(c2ccccc2Cl)OCc2nnc(CN)n2-c2ccc(Cl)cc21 (centres unmarked) [drawing 27 (OC2H5, 1/2 succinate)] | > 1000 | 1.14 | 33.5 |
